From patent US20160030459A1, “COMPOSITIONS AND METHODS FOR TREATING ALLERGIC CONDITIONS” (IMMUNE DESIGN CORP., priority 2014, published 2016)

Tests used:
[1] = tested on: Male cynomolgus macaques with a known sensitivity to inhaled Ascaris suum; assay: Primate model of allergic rhinitis, intranasal adjuvant; assay type: in vivo, cynomolgus macaque
Procedure: GLA adjuvant was evaluated in a nonhuman primate allergic rhinitis model. Male cynomolgus macaques with a known sensitivity to inhaled Ascaris suum were treated with a composition comprising a GLA adjuvant, in an aqueous formulation, via intranasal delivery.
12 animals were assigned randomly to each of vehicle or drug treatment groups. The drug treatment group received 100 μl of a composition containing 5.0 μg GLA adjuvant in an aqueous formulation, intranasally in each nostril, for a total dose of 10 μg. The vehicle group received 100 μl of vehicle in each nostril. The adjuvant or vehicle was administered intranasally once weekly for 4 consecutive weeks. All intranasal dosing was administered using a Penn Century Microsprayer.
The animals were challenged with Ascaris suum into the left nostril concurrent with treatment on days 0 and 14 (at the first and third treatment times).
Animals with severe rhinitis have reduced nasal area or increased nasal congestion as compared to those with improved response and increased nasal area or decreased nasal congestion. Nasal lavage samples were also obtained and total and differential cell count were evaluated.
Briefly, animals were sedated and placed on a ventilator. Blood samples were drawn. A baseline Acoustic Rhinometer measurement (nasal volume and nasal minimum cross-sectional area) was taken in the left nostril followed by instillation of 100 μl saline using a microspayer. After instillation of saline, Acoustic Rhinometry measurements (nasal volume and nasal minimum cross-sectional area) were taken at 2 minutes. Next 100 μl of A. suum (10.0 mg/ml) was instilled into the left nostril using a microsprayer and Acoustic Rhinometry measurements were taken at 1, 2, 3 minutes. Fifteen minutes after A. suum challenge a nasal lavage was performed using 3.0 ml saline injected into the left nostril. After nasal lavage, sedation was reversed.
Total cell count in the nasal lavage samples was determined using the Advia120 hematology analyzer (SOP BW-INM-Resp-SOP-09033). Differential cell counts were performed with cystospins manually on 200 cells using standard morphological criteria.

[2] = tested on: mice presensitized with intra-gastric RPE; assay: Murine model of peanut allergy, related study with GLA-SE +/- peanut extract; assay type: in vivo, mouse; details: with or without antigen, s.c.
Procedure: In a related study, mice were presensitized with intra-gastric RPE six times at days 0, 1, 2, 7, 14 and 21 (FIG. 15). On days 29, 35, 42 and 49, mice were treated subcutaneously with 2 ug GLA-SE or 2 ug GLA-SE+50 ug RPE. Mice were subsequently challenged by intraperitoneal administration on study day 55 with 12 mg RPE. Anaphylaxis scores and body temperature of mice were then measured. […] Disease scoring was as follows: 1: mild anaphylaxis (scratching, mild snout swelling); 2: Moderate anaphylaxis (mod swelling, mild lethargy) 3: =Severe anaphylaxis (severe swelling, lethargy); 4: Very severe anaphylaxis (moribund, labored breathing); 5: Death.

[3] = tested on: PBMCs from Timothy Grass allergic subjects; assay: Cytokine expression of PBMCs from Timothy grass-allergic subjects; assay type: cell-based, human; details: Timothy grass allergen and GLA
Description: PBMCs were collected from Timothy Grass allergic and non-allergic subjects and evaluated for T cell cytokine expression after exposure to Timothy grass allergen and GLA. As shown in FIG. 16A-16D, GLA decreased IL-5 and increased IFN-γ, IL-12 and TNF-alpha cytokine response to Timothy grass allergen.

[4] = tested on: Male Balb/c mice sensitized with OVA; assay: Murine model of chronic allergy (OVA-induced airway inflammation and hyperreactivity); assay type: in vivo, mouse
Procedure: The effect of GLA was evaluated in a chronic model Of OVA-induced airway inflammation and airway hyperreactivity in mice. Male Balb/c mice were sensitized systemically with OVA i.p. over a 2 week period (days 0 & 14). One week later, they were challenged with OVA i.n for 3 consecutive days (days 22 through 24). The animals were then treated once with GLA, in an aqueous formulation, i.n., 1 day post-challenge (day 25) as follows (20 mice per group):
Vehicle-treated; Saline challenged (negative control) Vehicle-treated; OVA challenged (positive control) GLA-treated, single dose (2 ug/animal, i.n.); OVA challenged
The animals were challenged again with OVA i.n. 1 month later (days 55 & 56). AHR as described above in Example 2 was performed 1-2 days post 2nd challenge (the large number of animals required two days to complete the AHR testing). Bronchoalveolar lavage fluid (BALF), thoracic lymph nodes and spleen were collected for FACS & cytokine analysis, and serum was collected for IgE and IgG levels.

[5] = tested on: Male cynomolgus macaques with a known sensitivity to inhaled Ascaris suum; assay: Primate model of allergic rhinitis, intramuscular adjuvant; assay type: in vivo, cynomolgus macaque; details: GLA 10 ug intramuscularly, four weekly doses; ascaris antigens intranasally
Procedure: GLA adjuvant was evaluated in a nonhuman primate allergic rhinitis model. Male cynomolgus macaques with a known sensitivity to inhaled Ascaris suum were treated with a composition comprising a GLA adjuvant, in an oil-based emulsion formulation, with and without allergen, via intramuscular delivery.
Animals (n=12) were treated with four doses of GLA (10 ug) at weekly intervals and were exposed to Ascaris suum antigens at the same time. The evaluation of the response was determined by acoustic rhinometry which measured the nasal area as an indication of congestion Animals with severe rhinitis have reduced nasal area or increased nasal congestion as compared to those with improved response and increased nasal area or decreased nasal congestion.
In this study, animals treated with GLA-SE were compared with animals treated with SE alone. In addition, ascaris antigens in conjunction with GLA were tested. Ascaris antigens were either delivered in combination with GLA via the intramuscular route of administration, or were delivered intranasally separate from the intramuscular GLA treatment.

various human cell types = assay: Effect of GLA adjuvant in vitro on cytokine expression of human cells; assay type: cell-based
Procedure: (§1) The effect of GLA adjuvant in vitro on various human cell types was evaluated.

[6] = tested on: dendritic cells (both myeloid and monocyte-derived); assay: Activation and maturation of dendritic cells in vitro; assay type: cell-based, human
Procedure: as §1

[7] = tested on: PBMCs from peanut allergic subjects; assay: T cell proliferation and cytokine expression of PBMCs from peanut-allergic subjects; assay type: cell-based, human
Description: PBMCs were collected from peanut allergic and non-allergic subjects (n=4) and evaluated for T cell proliferation and cytokine expression after exposure to peanut extract and GLA. […] In addition, these samples had increased tolerogenic IL-10 expression and […] IL-2 expression indicative of inhibition of T cell proliferation.

OVA-sensitized mice = assay: Prophylactic dosing regimens in murine model of allergy; assay type: in vivo, mouse
Procedure: Three different prophylactic dosing regimens of GLA adjuvant, in an aqueous formulation, were evaluated in the same murine model of allergy described in Example 2. Mice were divided into three treatment arms (20 mice per group), treated as follows starting at 1 week post OVA sensitization, and then challenged with OVA or saline (negative control):
Vehicle-treated at day 14; Saline challenged (negative control) Vehicle-treated at day 14; OVA challenged (positive control) GLA-treated at day 14, with a single dose of GLA (2 ug/animal, i.n.); OVA challenged GLA-treated on days 14, 15, 16, 17, with 4 doses of GLA on consecutive days (each dose 2 ug/animal, i.n.); OVA challenged GLA+Ag-treated on day 14, single dose GLA (2 ug/animal, i.n.)+OVA antigen (20 ug/animal, i.n.); OVA challenged
The animals were challenged with OVA or saline i.n. for 4 consecutive days, 5-7 days post treatment (at days 22, 23, 24 and 25). Airway hyperresponsiveness (AHR) was determined at 1 or 2 days post challenge (the large number of animals required two days to complete the AHR testing). Bronchoalveolar lavage fluid (BALF), thoracic lymph nodes and spleen were collected for FACS & cytokine analysis, and serum was collected for IgE and IgG levels.

[8] = treatment period (weeks 1-4) and 4 weeks post treatment (weeks 5-8)
[9] = Day 1 after peanut extract and GLA exposure
[10] = 4 doses on days 14, 15, 16, 17, each 2 ug/animal i.n.
[11] = single dose day 14, 2 ug/animal i.n.

CCCCCCCCCCCCCC(=O)OC(CCCCCCCCCCC)CC(=O)NC1C(OCC2OC(O)C(NC(=O)CC(O)CCCCCCCCCCC)C(OC(=O)CC(O)CCCCCCCCCCC)C2O)OC(CO)C(OP(=O)(O)O)C1OC(=O)CC(CCCCCCCCCCC)OC(=O)CCCCCCCCCCCCC (centres unmarked) [GLA, glucopyranosyl lipid A]
percentage of baseline nasal cross sectional area ([1]; 10 μg intranasal once weekly for 4 weeks, compared with vehicle): increased | antigen-induced nasal congestion ([1]; aqueous formulation, 10 μg intranasal once weekly for 4 weeks, A. suum challenge): reduced | differential cell count (lymphocyte, monocyte, granuolocyte, neutrophil, eosinophil or basophil cell numbers) [1, 8]: not altered | platelet counts [1, 8]: did not alter | red blood cell counts [1, 8]: did not alter | white blood cell counts [1, 8]: did not alter | peanut allergy in a mouse model [2]: attenuates | IL-12 cytokine response to Timothy grass allergen ([3]; 2 day culture): increases | TNF-alpha cytokine response to Timothy grass allergen ([3]; 2 day culture): increases | IFN-γ cytokine response to Timothy grass allergen ([3]; 6 day culture): increases | IL-5 cytokine response to Timothy grass allergen ([3]; 6 day culture): decreases | leukocyte cell count in BALF (including eosinophil, macrophage or CD3+ T cell counts) ([4]; single dose 2 ug/animal i.n.): did not alter | time after GLA dosing for which effects could be observed ([4]; single dose 2 ug/animal i.n.): at least 1 month | airway hyperresponsiveness ([4]; single dose 2 ug/animal i.n. day 25, 1 month before allergen challenge): attenuate | IL-4 expression in the airway after allergen challenge ([4]; single dose 2 ug/animal i.n. one month before allergen challenge): attenuate | nasal rhinitis scores [5]: did not improve | GM-CSF expression (various human cell types): induced expression | IL-1β expression (various human cell types): induced expression | IL-6 expression (various human cell types): induced expression | IL-8 expression (various human cell types): induced expression | IL-10 expression (various human cell types): induced expression | TNF-α expression (various human cell types): induced expression | activation and maturation of dendritic cells [6]: induced activation and maturation | IL12p70 (IL-12) expression [7, 9]: increased | IL-2 expression [7, 9]: increased | interferon gamma expression [7, 9]: increased | tolerogenic IL-10 expression [7, 9]: increased | CD4 T cell proliferation ([7]; Day 6 after exposure to peanut extract and GLA): dose-dependent antigen specific inhibition | CD3+ T cells in BALF (OVA-sensitized mice; [10]): decreased | eosinophil in BALF (OVA-sensitized mice; [10]): decreased | total leukocytes in BALF (OVA-sensitized mice; [10]): decreased | cellularity systemically, in spleen or lymph nodes (OVA-sensitized mice; i.n. GLA treatment): did not alter | numbers of CD3+ T cells in BALF (OVA-sensitized mice; [11]): did not alter | numbers of eosinophils in BALF (OVA-sensitized mice; [11]): did not alter | numbers of macrophages in BALF (OVA-sensitized mice; [11]): did not alter
